From PubChem BioAssay AID248 (DTP/NCI, 2004)
Several values for one entry are separate records, joined by “and”; a condition that tells them apart may be missing. Equal entries are not always repeated. Inconclusive results and toxic doses are left out.

System: L1210 leukemia ip in BDF1 mice, survival T/C
Experiment: NCI In Vivo Anticancer Drug Screen. Data for tumor model L1210 Leukemia (intraperitoneal) in B6D2F1 (BDF1) mice
Conditions: endpoint: mean survival time, higher = longer survival
Summary of the method: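 Antitumor effect is assessed in tumor-bearing animals. Survival in the compound arm is compared with a vehicle-dosed control arm and expressed as their quotient.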

[1] = dose: 100.0 mg/kg/injection, schedule: Q01DX009 (ip), vehicle: Klucel (hydroxypropylcellulose) (HPC)
[2] = dose: 200.0 mg/kg/injection, schedule: Q01DX009 (ip), vehicle: Klucel (hydroxypropylcellulose) (HPC)
[3] = dose: 400.0 mg/kg/injection, schedule: Q01DX009 (ip), vehicle: Klucel (hydroxypropylcellulose) (HPC)
[4] = dose: 100.0 mg/kg/injection, schedule: Q01DX009 (ip), vehicle: saline with Tween-80
[5] = dose: 100.0 mg/kg/injection, schedule: Q04DX003 (ip), vehicle: saline with Tween-80
[6] = dose: 200.0 mg/kg/injection, schedule: Q01DX009 (ip), vehicle: saline with Tween-80
[7] = dose: 200.0 mg/kg/injection, schedule: Q04DX003 (ip), vehicle: saline with Tween-80
[8] = dose: 400.0 mg/kg/injection, schedule: Q01DX009 (ip), vehicle: saline with Tween-80
[9] = dose: 400.0 mg/kg/injection, schedule: Q04DX003 (ip), vehicle: saline with Tween-80
[10] = dose: 100.0 mg/kg/injection, schedule: Q01DX001 (ip), vehicle: saline
[11] = dose: 200.0 mg/kg/injection, schedule: Q01DX001 (ip), vehicle: saline
[12] = dose: 400.0 mg/kg/injection, schedule: Q01DX001 (ip), vehicle: saline
[13] = dose: 50.0 mg/kg/injection, schedule: Q01DX001 (ip), vehicle: carboxymethylcellulose (CMC)
[14] = dose: 100.0 mg/kg/injection, schedule: Q01DX001 (ip), vehicle: carboxymethylcellulose (CMC)
[15] = dose: 200.0 mg/kg/injection, schedule: Q01DX001 (ip), vehicle: carboxymethylcellulose (CMC)
[16] = dose: 400.0 mg/kg/injection, schedule: Q01DX001 (ip), vehicle: carboxymethylcellulose (CMC)
[17] = dose: 12.5 mg/kg/injection, schedule: Q01DX009 (ip), vehicle: saline with Tween-80
[18] = dose: 25.0 mg/kg/injection, schedule: Q01DX009 (ip), vehicle: saline with Tween-80
[19] = dose: 100.0 mg/kg/injection, schedule: Q04DX002 (ip), vehicle: Klucel (hydroxypropylcellulose) (HPC)
[20] = dose: 200.0 mg/kg/injection, schedule: Q04DX002 (ip), vehicle: Klucel (hydroxypropylcellulose) (HPC)
[21] = dose: 400.0 mg/kg/injection, schedule: Q04DX002 (ip), vehicle: Klucel (hydroxypropylcellulose) (HPC)

With `CCOC(=Nc1ccccc1)c1ccccc1` the T/C [1] was 104 % of control, the T/C [2] was 100 % of control and the T/C [3] was 102 % of control.
`COc1cc2c(c(Cl)c1N)-c1ccccc1C2` was tested, and the T/C (dose: 177.0 mg/kg/injection, schedule: Q01DX001 (ip), vehicle: carboxymethylcellulose (CMC)) was 104 % of control and the T/C (dose: 266.0 mg/kg/injection, schedule: Q01DX001 (ip), vehicle: carboxymethylcellulose (CMC)) was 98 % of control.
In the case of `CCOC(=O)C1=C(C)NC(C)=C(C(C)=O)C1c1ccnc2ccccc12` (stereo not given), the T/C [4] is reported as 98 % of control, the T/C [5] is reported as 95 % of control and the T/C [6] is reported as 102 % of control. The T/C [7] was 92 % of control, the T/C [8] was 100 % of control and the T/C [9] was 100 % of control.
In the case of `CCC(C)(NC(N)=O)c1ccccc1` (stereo not given), the T/C [10] is reported as 101 % of control and the T/C [11] is reported as 104 % of control.
For `N=c1ccn(C2OC(CO)C(O)C2O)c(=O)n1O` (stereo not given), the T/C (dose: 5.0 mg/kg/injection, schedule: Q01DX009 (ip), vehicle: saline) was 123 % of control, the T/C (dose: 10.0 mg/kg/injection, schedule: Q01DX009 (ip), vehicle: saline) was 100 % of control and the T/C [10] was 105 % of control. For the same compound, the T/C [11] was 108 % of control, the T/C [12] was 103 % of control and 105 % of control and the T/C (dose: 400.0 mg/kg/injection, schedule: Q01DX009 (ip), vehicle: saline) was 167 % of control. For the same compound, the T/C (dose: 600.0 mg/kg/injection, schedule: Q01DX001 (ip), vehicle: saline) was 105 % of control, the T/C (dose: 600.0 mg/kg/injection, schedule: Q01DX009 (ip), vehicle: saline) was 94 % of control and the T/C (dose: 800.0 mg/kg/injection, schedule: Q01DX001 (ip), vehicle: saline) was 110 % of control. The T/C (dose: 800.0 mg/kg/injection, schedule: Q01DX009 (ip), vehicle: saline) was 94 % of control.
For `CC(C)=C(Cl)C(C)(C)C(=O)O`, the T/C [5] was 103 % of control, the T/C [7] was 101 % of control and the T/C [9] was 97 % of control.
In the case of `CC(/C=N/N(C)C(=N)N)=N\N(C)C(=N)N`, the T/C (dose: 15.0 mg/kg/injection, schedule: Q01DX Z (ip), vehicle: saline) is reported as 88 % of control, the T/C (dose: 30.0 mg/kg/injection, schedule: Q01DX Z (ip), vehicle: saline) is reported as 103 % of control and the T/C (dose: 60.0 mg/kg/injection, schedule: Q01DX Z (ip), vehicle: saline) is reported as 98 % of control. The T/C (dose: 120.0 mg/kg/injection, schedule: Q01DX Z (ip), vehicle: saline) was 102 % of control, the T/C (dose: 120.0 mg/kg/injection, schedule: Q01DX Z (oral), vehicle: saline) was 103 % of control and the T/C (dose: 240.0 mg/kg/injection, schedule: Q01DX Z (oral), vehicle: saline) was 97 % of control. For the same compound, the T/C (dose: 480.0 mg/kg/injection, schedule: Q01DX Z (oral), vehicle: saline) was 106 % of control and the T/C (dose: 960.0 mg/kg/injection, schedule: Q01DX Z (oral), vehicle: saline) was 113 % of control.
With `CC(=O)OCC1OC(n2cc(C)c(=O)[nH]c2=O)C(Nc2ccc([N+](=O)[O-])cc2[N+](=O)[O-])C(OC(C)=O)C1OC(C)=O` (stereo not given) the T/C [13] was 97 % of control, the T/C [14] was 94 % of control and the T/C [15] was 94 % of control. For the same compound, the T/C [16] was 89 % of control.
With `CC(C)CN(CC(C)C)/N=C/c1cc([N+](=O)[O-])ccc1O` the T/C (dose: 100.0 mg/kg/injection, schedule: Q04DX002 (ip), vehicle: saline with Tween-80) was 97 % of control, the T/C (dose: 200.0 mg/kg/injection, schedule: Q04DX002 (ip), vehicle: saline with Tween-80) was 91 % of control and the T/C (dose: 400.0 mg/kg/injection, schedule: Q04DX002 (ip), vehicle: saline with Tween-80) was 87 % of control.
In the case of `O=C(C=C(C(F)(F)F)C(F)(F)F)c1ccc(Cl)cc1`, the T/C (dose: 3.13 mg/kg/injection, schedule: Q01DX009 (ip), vehicle: saline with Tween-80) is reported as 101 % of control, the T/C (dose: 6.25 mg/kg/injection, schedule: Q01DX009 (ip), vehicle: saline with Tween-80) is reported as 97 % of control and the T/C [17] is reported as 100 % of control. The T/C [18] was 97 % of control and 101 % of control, the T/C (dose: 50.0 mg/kg/injection, schedule: Q04DX003 (ip), vehicle: saline with Tween-80) was 91 % of control and the T/C [5] was 86 % of control. The T/C [7] was 86 % of control.
`Cc1cccc(C2=N/C(=C\c3cccc([N+](=O)[O-])c3)C(=O)O2)c1` was tested, and the T/C [19] was 92 % of control, the T/C [20] was 92 % of control and the T/C [21] was 100 % of control.
For `O=C(O)CCCCCCCCC(=O)c1ccccc1`, the T/C [4] was 95 % of control, the T/C [6] was 91 % of control and the T/C [8] was 95 % of control.
`CC(C)=CCN(CC=C(C)C)CCC(CC=C(C)C)(C(N)=O)c1cccc2ccccc12` (stereo not given) was tested, and the T/C (dose: 6.25 mg/kg/injection, schedule: Q01DX009 (ip), vehicle: Klucel (hydroxypropylcellulose) (HPC)) was 89 % of control, the T/C (dose: 12.5 mg/kg/injection, schedule: Q01DX009 (ip), vehicle: Klucel (hydroxypropylcellulose) (HPC)) was 101 % of control and the T/C (dose: 25.0 mg/kg/injection, schedule: Q01DX009 (ip), vehicle: Klucel (hydroxypropylcellulose) (HPC)) was 89 % of control.
With `OC1C2C3CCC(C3)C2C(O)C2C3CCC(C3)C12` (stereo not given) the T/C [17] was 101 % of control and the T/C [18] was 101 % of control.
`Cn1nc(C(=O)O)c2c(N)ncnc21` was tested, and the T/C (dose: 50.0 mg/kg/injection, schedule: Q04DX002 (ip), vehicle: saline) was 103 % of control, the T/C (dose: 100.0 mg/kg/injection, schedule: Q04DX002 (ip), vehicle: saline) was 95 % of control and the T/C (dose: 200.0 mg/kg/injection, schedule: Q04DX002 (ip), vehicle: saline) was 98 % of control.
`COc1ccc(OC)c(NC(=O)Nc2ccccc2C(F)(F)F)c1` was tested, and the T/C [1] was 102 % of control, the T/C [2] was 89 % of control and the T/C [3] was 95 % of control.
With `COC(=O)c1ccc(-c2cc(Cl)c3cc(S(=O)(=O)F)ccc3n2)cc1` the T/C [4] was 94 % of control, the T/C [6] was 100 % of control and the T/C [8] was 95 % of control.
`OCCNc1nc2ccc(Br)cc2c2ccccc12` was tested, and the T/C [1] was 87 % of control, the T/C (dose: 100.0 mg/kg/injection, schedule: Q04DX003 (ip), vehicle: Klucel (hydroxypropylcellulose) (HPC)) was 93 % of control and the T/C (dose: 200.0 mg/kg/injection, schedule: Q04DX003 (ip), vehicle: Klucel (hydroxypropylcellulose) (HPC)) was 93 % of control. The T/C (dose: 400.0 mg/kg/injection, schedule: Q04DX003 (ip), vehicle: Klucel (hydroxypropylcellulose) (HPC)) was 106 % of control.
With `Cc1cc(Cl)ccc1NC(=O)Nc1ccccc1F` the T/C [1] was 100 % of control, the T/C [2] was 96 % of control and the T/C [3] was 94 % of control.
For `COc1cc(/C=C2\CCOC2=O)c([N+](=O)[O-])cc1OC`, the T/C [13] was 96 % of control, the T/C [14] was 94 % of control and the T/C [15] was 94 % of control. For the same compound, the T/C [16] was 90 % of control.
For `CC(C)(NC(=O)NCCCl)c1ccccc1`, the T/C [10] was 96 % of control.
With `O=c1[nH]c2cc(Cl)cc(Cl)c2c2ccc(Cl)cc12` the T/C [14] was 100 % of control, the T/C [15] was 96 % of control and the T/C [16] was 89 % of control.
`CCOCCOCCOCCCNCC(=O)N1CCN(C(=O)CNCCCOCCOCCOCC)CC1` was tested, and the T/C [13] was 92 % of control, the T/C [14] was 101 % of control and the T/C [15] was 103 % of control. The T/C [16] was 92 % of control.
`OC(Cc1cccc(/C=N/N2CCOCC2)n1)(C(F)(F)F)C(F)(F)F` was tested, and the T/C [4] was 91 % of control, the T/C [6] was 98 % of control and the T/C [8] was 89 % of control.
With `COc1cc(/C=C(/NC(=O)c2ccccc2)C(=O)O)ccc1O` the T/C [10] was 94 % of control, the T/C (dose: 100.0 mg/kg/injection, schedule: Q04DX003 (ip), vehicle: saline) was 96 % of control and the T/C [11] was 89 % of control. The T/C (dose: 200.0 mg/kg/injection, schedule: Q04DX003 (ip), vehicle: saline) was 97 % of control, the T/C [12] was 96 % of control and the T/C (dose: 400.0 mg/kg/injection, schedule: Q04DX003 (ip), vehicle: saline) was 88 % of control.
With `O=C(Nc1ccccc1)C(Cl)Cl` the T/C [4] was 96 % of control, the T/C [6] was 91 % of control and the T/C [8] was 96 % of control.
With `Cn1c(=O)c2c(nc(N/N=C/c3ccc(O)cc3)n2C)n(C)c1=O` the T/C (dose: 44.0 mg/kg/injection, schedule: Q01DX Z (ip), vehicle: methylcellulose (MC)) was 94 % of control, the T/C (dose: 66.0 mg/kg/injection, schedule: Q01DX Z (ip), vehicle: methylcellulose (MC)) was 97 % of control and the T/C (dose: 100.0 mg/kg/injection, schedule: Q01DX Z (ip), vehicle: methylcellulose (MC)) was 96 % of control.
With `O=C(Nc1cccc([N+](=O)[O-])c1)c1ccc(C(=O)Nc2cccc([N+](=O)[O-])c2)cc1` the T/C [19] was 98 % of control, the T/C [20] was 91 % of control and the T/C [21] was 86 % of control.
